# Measured values published in patent publication US12258299B2, “Permanent eco-fertilizer against fruit physiological disorders and pests” (S.A. Reverté Productos Minerales, priority 2019, dated 2025).
# Legend:
# [1] = tested on: Golden apple pulp; assay: Foliar fertilization of the pulp of Golden apples; format: in vivo; conditions: 30 kg/Ha, treatment last week of April
# Description: A first experiment was carried out to measure the foliar fertilization of Golden apples. The treatment was carried out the last week of April using a 3% weight suspension of the fertilizer as claimed in water (30 kg/1000 l water/Ha).
# [2] = Salt index of the fertilizer; format: physicochemical
smiles,measurement,setting,value
"[Ca+2].[Cl-].[Cl-] [CaCl2, calcium chloride]",Calcium,[1],24 ppm
same,salt index,[2],87
